A word on the EC50: it is the midpoint of the concentration-response curve.

From patent US20260355323A1, “CEREBLON-RECRUITING BCL-XL/BCL-2 DUAL DEGRADERS” (University of Florida Research Foundation, Incorporated, priority 2022, published 2026) come the findings set out here.

Assay [1] deals with MOLT-4 acute lymphoblastic leukemia cells. Nature of the assay: Cell viability, tetrazolium-based MTS assay, MOLT-4. Conditions: Homo sapiens, MOLT-4, 48 h; read-out: Anti-Cancer Activity EC50 (48 hr), MOLT-4. As for the experimental part:
(§1) Acute lymphoblastic leukemia cells (MOLT-4 and RS4;11) were incubated with increasing concentrations of Bcl-xL/Bcl-2 degraders for 48 h. Cell viability was measured by tetrazolium-based MTS assay.
A general note: Tetrazolium dyes change colour on reduction, which living cells bring about.

In assay [2] the test system is RS4;11 acute lymphoblastic leukemia cells. Nature of the assay: Cell viability, tetrazolium-based MTS assay, RS4;11. To be noted: Homo sapiens, RS4;11, 48 h, read-out: Anti-Cancer Activity EC50 (48 hr), RS4. As for the experimental part:
as §1

The subject of assay [3] is WI-38 NC. Nature of the assay: Senolytic activity, cell viability (PrestoBlue HS), WI-38 NC. The format is cell-based. To be noted: for EC50: Homo sapiens, 72 h. As for the experimental part: WI-38 and HUVEC cells were incubated with increasing concentrations of degraders for 72 h. Cell viability was measured using PrestoBlue HS cell viability reagent.

`CC1(CN2CCN(C(=O)CN3CCN(C(=O)CNc4ccc5c(c4)C(=O)N(C4CCC(=O)NC4=O)C5=O)CC3)CC2)CCC(c2ccc(Cl)cc2)=C(CN2CCN(c3ccc(C(=O)NS(=O)(=O)c4ccc(N[C@H](CCN5CCOCC5)CSc5ccccc5)c(S(=O)(=O)C(F)(F)F)c4)cc3)CC2)C1` (stereo partly drawn) [Compound 17, 4-(4-((4′-chloro-4-((4-(2-(4-((2-(2,6-dioxopiperidin-3-yl)-1,3-dioxoisoindolin-5-yl)glycyl)piperazin-1-yl)acetyl)piperazin-1-yl)methyl)-4-methyl-3,4,5,6-tetrahydro-[1,1′-biphenyl]-2-yl)methyl)piperazin-1-yl)-N-((4-(((R)-4-morpholino-1-(phenylthio)butan-2-yl)amino)-3-((trifluoromethyl)sulfonyl)phenyl)sulfonyl)benzamide]: the results for the EC50 in assay [1], in assay [2] and in assay [3] were less than 1 nM, less than 1 nM and more than 10000 nM, respectively.
As for `C[C@@]1(CN2CC(CN3CCN(c4ccc5c(c4)CN(C4CCC(=O)NC4=O)C5=O)CC3)C2)CCC(c2ccc(Cl)cc2)=C(CN2CCN(c3ccc(C(=O)NS(=O)(=O)c4ccc(N[C@H](CCN5CCCOCC5)CSc5ccccc5)c(S(=O)(=O)C(F)(F)F)c4)cc3)CC2)C1` (stereo partly drawn) [Compound 24, N-((4-(((R)-4-(1,4-oxazepan-4-yl)-1-(phenylthio)butan-2-yl)amino)-3-((trifluoromethyl)sulfonyl)phenyl)sulfonyl)-4-(4-(((4R)-4′-chloro-4-((3-((4-(2-(2,6-dioxopiperidin-3-yl)-1-oxoisoindolin-5-yl)piperazin-1-yl)methyl)azetidin-1-yl)methyl)-4-methyl-3,4,5,6-tetrahydro-[1,1′-biphenyl]-2-yl)methyl)piperazin-1-yl)benzamide], the results for the concentration for a half-maximal effect (EC50) in assay [1], in assay [2] and in assay [3] were 1 to 10 nM, less than 1 nM and more than 10000 nM, respectively.
In the case of `C[C@@]1(CN2CCN(CC#Cc3ccc4c(c3)CN(C3CCC(=O)NC3=O)C4=O)CC2)CCC(c2ccc(Cl)cc2)=C(CN2CCN(c3ccc(C(=O)NS(=O)(=O)c4ccc(N[C@H](CCN5CCCOCC5)CSc5ccccc5)c(S(=O)(=O)C(F)(F)F)c4)cc3)CC2)C1` (stereo partly drawn) [Compound 26, N-((4-(((R)-4-(1,4-oxazepan-4-yl)-1-(phenylthio)butan-2-yl)amino)-3-((trifluoromethyl)sulfonyl)phenyl)sulfonyl)-4-(4-(((4R)-4′-chloro-4-((4-(3-(2-(2,6-dioxopiperidin-3-yl)-1-oxoisoindolin-5-yl)prop-2-yn-1-yl)piperazin-1-yl)methyl)-4-methyl-3,4,5,6-tetrahydro-[1,1′-biphenyl]-2-yl)methyl)piperazin-1-yl)benzamide], the figures for the EC50 in assay [1], in assay [2] and in assay [3] were less than 1 nM, 1 to 10 nM and more than 10000 nM, respectively.
Turning to `C[C@@]1(CN2CCC(CC#Cc3ccc4c(c3)CN(C3CCC(=O)NC3=O)C4=O)CC2)CCC(c2ccc(Cl)cc2)=C(CN2CCN(c3ccc(C(=O)NS(=O)(=O)c4ccc(N[C@H](CCN5CCCOCC5)CSc5ccccc5)c(S(=O)(=O)C(F)(F)F)c4)cc3)CC2)C1` (stereo partly drawn) [Compound 29, N-((4-(((R)-4-(1,4-oxazepan-4-yl)-1-(phenylthio)butan-2-yl)amino)-3-((trifluoromethyl)sulfonyl)phenyl)sulfonyl)-4-(4-(((4R)-4′-chloro-4-((4-(3-(2-(2,6-dioxopiperidin-3-yl)-1-oxoisoindolin-5-yl)prop-2-yn-1-yl)piperidin-1-yl)methyl)-4-methyl-3,4,5,6-tetrahydro-[1,1′-biphenyl]-2-yl)methyl)piperazin-1-yl)benzamide], the EC50 in assay [1] is 1 to 10 nM; in assay [2] it was less than 1 nM; in assay [3] it was more than 10000 nM.
As to `CN(CC#Cc1ccc2c(c1)CN(C1CCC(=O)NC1=O)C2=O)C[C@]1(C)CCC(c2ccc(Cl)cc2)=C(CN2CCN(c3ccc(C(=O)NS(=O)(=O)c4ccc(N[C@H](CCN5CCCOCC5)CSc5ccccc5)c(S(=O)(=O)C(F)(F)F)c4)cc3)CC2)C1` (stereo partly drawn) [Compound 37, N-((4-(((R)-4-(1,4-oxazepan-4-yl)-1-(phenylthio)butan-2-yl)amino)-3-((trifluoromethyl)sulfonyl)phenyl)sulfonyl)-4-(4-(((4R)-4′-chloro-4-(((3-(2-(2,6-dioxopiperidin-3-yl)-1-oxoisoindolin-5-yl)prop-2-yn-1-yl)(methyl)amino)methyl)-4-methyl-3,4,5,6-tetrahydro-[1,1′-biphenyl]-2-yl)methyl)piperazin-1-yl)benzamide], the values for the EC50 in assay [1], in assay [2] and in assay [3] were less than 1 nM, 1 to 10 nM and more than 10000 nM, respectively.
On to `CC(C)N(CC#Cc1ccc2c(c1)CN(C1CCC(=O)NC1=O)C2=O)C[C@]1(C)CCC(c2ccc(Cl)cc2)=C(CN2CCN(c3ccc(C(=O)NS(=O)(=O)c4ccc(N[C@H](CCN5CCCOCC5)CSc5ccccc5)c(S(=O)(=O)C(F)(F)F)c4)cc3)CC2)C1` (stereo partly drawn) [Compound 38, N-((4-(((R)-4-(1,4-oxazepan-4-yl)-1-(phenylthio)butan-2-yl)amino)-3-((trifluoromethyl)sulfonyl)phenyl)sulfonyl)-4-(4-(((4R)-4′-chloro-4-(((3-(2-(2,6-dioxopiperidin-3-yl)-1-oxoisoindolin-5-yl)prop-2-yn-1-yl) (isopropyl)amino)methyl)-4-methyl-3,4,5,6-tetrahydro-[1,1′-biphenyl]-2-yl)methyl)piperazin-1-yl)benzamide], for which the EC50 in assay [1] is 1 to 10 nM; in assay [2], 1 to 10 nM; in assay [3], more than 10000 nM.
Take `C[C@@]1(CN2CCN(CCC#Cc3ccc4c(c3)CN(C3CCC(=O)NC3=O)C4=O)CC2)CCC(c2ccc(Cl)cc2)=C(CN2CCN(c3ccc(C(=O)NS(=O)(=O)c4ccc(N[C@H](CCN5CCCOCC5)CSc5ccccc5)c(S(=O)(=O)C(F)(F)F)c4)cc3)CC2)C1` (stereo partly drawn) [Compound 40, N-((4-(((R)-4-(1,4-oxazepan-4-yl)-1-(phenylthio)butan-2-yl)amino)-3-((trifluoromethyl)sulfonyl)phenyl)sulfonyl)-4-(4-(((4R)-4′-chloro-4-((4-(4-(2-(2,6-dioxopiperidin-3-yl)-1-oxoisoindolin-5-yl)but-3-yn-1-yl)piperazin-1-yl)methyl)-4-methyl-3,4,5,6-tetrahydro-[1,1′-biphenyl]-2-yl)methyl)piperazin-1-yl)benzamide]: the figures for the EC50 in assay [1], in assay [2] and in assay [3] were less than 1 nM, less than 1 nM and more than 10000 nM, respectively.
Take `C[C@@]1(CN2CC(CN3CCCN(c4ccc5c(c4)CN(C4CCC(=O)NC4=O)C5=O)CC3)C2)CCC(c2ccc(Cl)cc2)=C(CN2CCN(c3ccc(C(=O)NS(=O)(=O)c4ccc(N[C@H](CCN5CCCOCC5)CSc5ccccc5)c(S(=O)(=O)C(F)(F)F)c4)cc3)CC2)C1` (stereo partly drawn) [Compound 45, N-((4-(((R)-4-(1,4-oxazepan-4-yl)-1-(phenylthio)butan-2-yl)amino)-3-((trifluoromethyl)sulfonyl)phenyl)sulfonyl)-4-(4-(((4R)-4′-chloro-4-((3-((4-(2-(2,6-dioxopiperidin-3-yl)-1-oxoisoindolin-5-yl)-1,4-diazepan-1-yl)methyl)azetidin-1-yl)methyl)-4-methyl-3,4,5,6-tetrahydro-[1,1′-biphenyl]-2-yl)methyl)piperazin-1-yl)benzamide]: the EC50 in assay [1] and in assay [2] was 1 to 10 nM each time. Further, the “Senolytic Activity EC50 (72 hr), WI-38 NC” value in assay [3] is recorded as “++ (100-10 μM)”.
